9 molecules from ChEMBL document CHEMBL1141988, “Bis(aminopyrrolidine)-derived ureas (APUs) as potent MCH1 receptor antagonists” (Bioorg Med Chem Lett, 2005) can be followed below.

The target of this assay is Melanin-concentrating hormone receptor 1 (Homo sapiens, UniProt Q99705). Nature of the assay: Displacement of [125I]MCH from human Melanin-concentrating hormone 1 (MCH1) receptor modified for optimal expression in HEK293 cells. In kind it is cell-based.
Sequence of Melanin-concentrating hormone receptor 1 (Q99705 whole entry): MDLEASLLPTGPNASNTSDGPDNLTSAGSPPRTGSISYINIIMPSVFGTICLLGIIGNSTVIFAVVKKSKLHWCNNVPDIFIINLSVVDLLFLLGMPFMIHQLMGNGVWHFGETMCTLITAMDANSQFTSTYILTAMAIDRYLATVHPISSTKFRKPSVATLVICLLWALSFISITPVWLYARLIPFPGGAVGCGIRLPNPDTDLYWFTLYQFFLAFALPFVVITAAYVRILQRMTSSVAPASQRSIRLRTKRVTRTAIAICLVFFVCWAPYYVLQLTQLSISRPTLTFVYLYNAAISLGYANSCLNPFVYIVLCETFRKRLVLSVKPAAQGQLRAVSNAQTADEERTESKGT
`CN(C(=O)c1ccc(-c2ccc(C(F)(F)F)cc2)cc1)C1CCN(C(=O)N(C)C2CCN(CCO)C2)C1` (centres undefined) had an inhibition constant Ki of 96 nM.

Regarding `CN(C(=O)c1ccc(-c2ccc(C(F)(F)F)cc2)cc1)C1CCN(C(=O)N(C)C2CCN(CCS(=O)(=O)N3CCCC3)C2)C1` (centres undefined), the Ki was 82 nM.

For the molecule `CN(C(=O)c1ccc(-c2ccc(C(F)(F)F)cc2)cc1)C1CCN(C(=O)N(C)C2CCN(CCOc3ccc(Cl)cc3)C2)C1` (centres undefined), the affinity corresponds to a Ki of 18 nM.

`CN(C(=O)c1ccc(-c2ccc(C(F)(F)F)cc2)cc1)C1CCN(C(=O)N(C)C2CCN(CCS(=O)(=O)c3ccc(Cl)cc3)C2)C1` (centres undefined) showed a Ki of 14 nM.

In the case of `CN1CCC(N(C)C(=O)CCCN(C)C(=O)c2ccc(-c3ccccc3)cc2)C1` (centres undefined), the affinity corresponds to a Ki of 142 nM.

Molecule `CN(C)CC1CCc2cc(NC(=O)c3ccc(-c4ccc(F)cc4)cc3)ccc2C1` (centres undefined) had a Ki of 5.5 nM.

In turn, `CN(C(=O)CCCC(=O)c1ccc(Cl)cc1)C1CCN(C(=O)N(C)C2CCN(CCCc3ccccc3)C2)C1` (centres undefined) registered a Ki of 48 nM. This Ki lies about 8.7-fold higher than the previous one.

The molecule `CN(C(=O)c1ccc(Oc2ccc(F)cc2)cc1)C1CCN(C(=O)N(C)C2CCN(CCCc3ccc(Cl)cc3)C2)C1` (centres undefined) yielded a Ki of 5.3 nM. Compared with the last molecule, the Ki is about 9.1-fold lower.

Molecule `CN(C(=O)c1ccc(-c2ccc(C(F)(F)F)cc2)cc1)C1CCN(C(=O)N(C)C2CCN(CCCc3ccc(Cl)cc3)C2)C1` (centres undefined) gave a Ki of 7.3 nM.

As usually defined, the Ki is a dissociation constant, usually derived from enzyme kinetics or from competition with a known ligand. Read a low Ki as higher affinity.
